Test results taken from patent publication US20030228357A1, “Dry granulated formulations of azithromycin” (Pfizer Inc., priority 2002, published 2003).
“Also recorded” adds a separate entry of the source. Blank lines part the entries; values can stand above or below the molecule they belong to.

Experiments:
Format in all cases: physicochemical
[1] = Tablet friability, Vanderkamp Friabulator (100 rotations/4 minutes)
Protocol: Friability is a standard test known to one skilled in the art. Friability is measured under standardized conditions by weighing out a certain number of tablets (generally 20 tablets or less), placing them in a rotating Plexiglas drum in which they are lifted during replicate revolutions by a radial lever, and then dropped approximately 8 inches. After replicate revolutions (typically 100 revolutions at 25 rpm), the tablets are reweighed and the percentage of formulation abraded or chipped is calculated. The friability of the tablets, of the present invention, is preferably in the range of about 0% to 3%, and values about 1%, or less, are considered acceptable for most drug and food tablet contexts. Friability which approaches 0% is particularly preferred.
(§1) All four formulations were compressed on the compaction simulator using either 0.344″×0.688″ oval tooling, or ½″ standard round concave (SRC) tooling. The tablets were tested for hardness (kP scale), using a Schleuniger hardness tablet tester (Dr. Schleuniger Pharmatron AG, Solothurn, Switzerland), and for friability (100 rotations/4 minutes) using a Vanderkamp Friabulator Tablet Tester (Vankel, Cary, N.C., US).

[2] = Tablet hardness, Schleuniger hardness tablet tester
[3] = Density and Carr's Compressibility Index (flowability) of dry blends and dry granulations; conditions: for Granulation Carr's Index / Granulation Density As Is / Granulation Density Tapped: long blend
Excerpt: Carr's Compressibility Index was used to evaluate the flowability of the four dry granulations. Carr's Compressibility Index is a simple test to evaluate flowability by comparing both the initial and final (tapped) bulk volumes and the rate of packing down. A useful empirical guide to flow is given by Carr's compressibility index: Compressibility Index(%)=[(tapped density−initial density)/tapped density]×100 […] The procedure is described in Int. J. Pharm. Tech. & Prod. Mfr., 6(3) 10-16, 1985.

[4] = Slug (compact) hardness, Schleuniger hardness tablet tester
Excerpt: A compaction simulator was used to compress the blends. The compaction simulator was designed as a single station tablet press in which the compression dwell time can be adjusted to simulate different types of tablet presses. All the formulations were slugged on the compaction simulator configured as the Kilian RX-67 press with a dwell time of 0.3145 seconds using […] round flat face tooling. The slugs were then comminuted using a Fitz mill with a 0.125″ screen with knives forward and run at slow speed. […] The slugs were tested for hardness (kP scale), using a Schleuniger hardness tablet tester (Dr. Schleuniger Pharmatron AG, Solothurn, Switzerland).

[5] = Tablet hardness, Schleuniger hardness tablet tester; conditions: for Avg Tablet Hardness: Table 4C, low drug loading, diluent MCC
Protocol: as §1

[6] = Indices of tableting performance (Hiestand) of bulk azithromycin; conditions: forms N, M, G, A milled, F and J unmilled
Protocol: Indices of tableting performance, for several azithromycin forms, were assessed to identify any mechanical deficiencies or attributes that may affect tablet formulation for these azithromycin forms. This assessment was performed in accordance with the procedures described in “Indices of Tableting, Performance” […] and D. P. Smith, Powder Technology 38 [1984] pp. 145-159. Specifically, the Brittle Fracture Index, BFI, was calculated from the ratio of a material's regular tensile strength to its compromised tensile strength. Strain Index, SI, was determined from the dynamic indentation hardness test. Worst Case Bonding Index was determined by assessing the extent of particle bonding remaining after decompression assuming a very short compression dwell time and a plastic mechanism of particle separation during decompression. Tableting Indices were determined for bulk azithromycin lots of six different crystalline forms, specifically forms N, M, G, A, F and J. Forms N, M and G were milled with a Fitzmill (Model JT, The Fitzpatrick Co., Elmhurst, Ill.) using a 0.027'' screen and knives at high speed in an attempt to match the smaller particle size of milled Form A. Unmilled forms F and J were evaluated “as is” due to their relatively small particle sizes.

[7] = Tablet friability, Vanderkamp Friabulator (100 rotations/4 minutes); conditions: Table 3D; high drug loading (58.2 wt % azithromycin), DCP anhydrous; modified capsule shape tablets, target weight 450 mg
[8] = Table 4D, high drug loading, diluent MCC, modified capsule shape
[9] = Table 4A, low drug loading (35.2 wt % azithromycin), diluent MCC
[10] = Table 4B, high drug loading (58.2 wt % azithromycin), diluent MCC
[11] = Table 7A, 55.76 wt % azithromycin, lactose anhydrous, corn starch, roller compaction 850 psi, sesquihydrate
[12] = Table 4C, low drug loading, diluent Lactose, Oval tooling
[13] = Table 4C, low drug loading, diluent Lactose, SRC (½″) tooling
[14] = Table 3C, low drug loading (35.2 wt % azithromycin), DCP anhydrous, oval tablets, target weight 750 mg
[15] = Table 6B, Drug Loading High, Modified Capsule 0.262″ × 0.531″
[16] = Table 6B, Drug Loading High, Oval 0.344″ × 0.688″
[17] = Table 6B, Drug Loading Low, Modified Capsule 0.262″ × 0.531″
[18] = Table 6B, Drug Loading Low, Oval 0.344″ × 0.688″
[19] = Table 6B, Drug Loading Low, ½″ SRC
[20] = Table 3A, low drug loading: 35.2 wt % azithromycin, 54.8 wt % dicalcium phosphate anhydrous
[21] = Table 3B, high drug loading: 58.2 wt % azithromycin, 31.8 wt % dicalcium phosphate anhydrous
[22] = Table 6A, Drug Loading High (58.2 wt % azithromycin), DCP anhydrous
[23] = Table 6A, Drug Loading Low (35.2 wt % azithromycin), DCP anhydrous

Friability ([1]; Table 4C, low drug loading, diluent MCC, Oval tooling): 1.30% | Friability ([1]; Table 4C, low drug loading, diluent MCC, SRC (½″) tooling): 0.78% | Friability [1, 8]: 0.41% | Avg Tablet Hardness [2, 8]: 5.8 kP | Dry Granulation Carr's Index [3, 9]: 25% | Dry Granulation Density As Is [3, 9]: 0.51 g/cc | Dry Granulation Density Tapped [3, 9]: 0.68 g/cc | Dry Granulation Carr's Index [3, 10]: 25% | Dry Granulation Density As Is [3, 10]: 0.53 g/cc | Dry Granulation Density Tapped [3, 10]: 0.71 g/cc | Dry Granulation Density Tapped ([3]; Table 7A, 55.76 wt % azithromycin, lactose anhydrous, corn starch, roller compaction 850 psi): 0.86 g/cc | Dry Granulation Carr's Index [3, 11]: 22% | Dry Granulation Density As Is [3, 11]: 0.67 g/cc | Avg Slug Hardness [4, 9]: 13 kP | Avg Slug Hardness [4, 10]: 9 kP | Avg Tablet Hardness ([5]; Oval tooling): 6.1 kP | Avg Tablet Hardness ([5]; SRC (½″) tooling): 5.3 kP | Strain Index (SI) ([6]; sesquihydrate): 0.0043 | Tensile Strength ([6]; sesquihydrate): 1.03 Mpa | Worst Case Bonding Index (BIw) × 10^2 ([6]; sesquihydrate): 0.8
Compound: CC[C@H]1OC(=O)[C@H](C)[C@@H](O[C@H]2C[C@@](C)(OC)[C@@H](O)[C@H](C)O2)[C@H](C)[C@@H](O[C@@H]2O[C@H](C)C[C@H](N(C)C)[C@H]2O)[C@](C)(O)C[C@@H](C)CN(C)[C@H](C)[C@@H](O)[C@]1(C)O [Form G, azithromycin sesquihydrate]

Compound: CCC1OC(=O)C(C)C(O[C@H]2C[C@@](C)(OC)[C@@H](O)C(C)O2)C(C)[C@@H](OC2OC(C)CC(N(C)C)[C@H]2O)[C@@](C)(O)C[C@@H](C)CN(C)[C@H](C)[C@@H](O)[C@]1(C)O (stereo partly shown) [Form H, azithromycin monohydrate hemi-1,2 propanediol solvate]
Friability [1, 12]: Broken | Friability [1, 13]: 0.53% | Avg Tablet Hardness [2, 12]: 7.0 kP | Avg Tablet Hardness [2, 13]: 7.5 kP

Compound: CCC1OC(=O)C(C)C(O[C@H]2C[C@@](C)(OC)[C@@H](O)C(C)O2)C(C)[C@@H](OC2OC(C)CC(N(C)C)[C@H]2O)[C@@](C)(O)C[C@@H](C)CN(C)[C@H](C)[C@@H](O)[C@]1(C)O (stereo partly shown) [Form J, azithromycin monohydrate hemi-n-propanol solvate]
Friability [1, 14]: broke during friability testing; also recorded: Broken | Friability [1, 15]: 0.38% | Friability [1, 16]: 0.71% | Friability [1, 17]: 0.52% | Friability [1, 18]: Broken Tablets | Friability [1, 19]: 1.46% | Friability [7]: 0.38% | Avg Hardness ([2]; Table 3D, high drug loading (58.2 wt % azithromycin), DCP anhydrous, modified capsule shape tablets, target weight 450 mg): 6.5 kP | Avg Hardness [2, 15]: 6.5 kP | Avg Hardness [2, 17]: 6.9 kP | Avg Hardness [2, 19]: 5.4 kP | Granulation Carr's Index [3, 20]: 22% | Granulation Density As Is [3, 20]: 0.87 g/cc | Granulation Density Tapped [3, 20]: 1.12 g/cc | Granulation Carr's Index [3, 21]: 28% | Granulation Density As Is [3, 21]: 0.67 g/cc | Granulation Density Tapped [3, 21]: 0.93 g/cc | Dry Granulation Carr's Index [3, 22]: 28% | Dry Granulation Density As Is [3, 22]: 0.67 g/cc | Dry Granulation Density Tapped [3, 22]: 0.93 g/cc | Dry Granulation Carr's Index [3, 23]: 22% | Dry Granulation Density As Is [3, 23]: 0.87 g/cc | Dry Granulation Density Tapped [3, 23]: 1.12 g/cc | Avg Slug Hardness ([4]; Table 3A, low drug loading: 35.2 wt % azithromycin, 54.8 wt % dicalcium phosphate anhydrous, long blend): 14 kP | Avg Slug Hardness ([4]; Table 3B, high drug loading: 58.2 wt % azithromycin, 31.8 wt % dicalcium phosphate anhydrous, long blend): 11 kP | Avg Slug Hardness [4, 22]: 11 kP | Avg Slug Hardness [4, 23]: 14 kP | Avg Hardness [5, 14]: 9.1 kP | Avg Hardness [5, 16]: 10.2 kP | Avg Hardness [5, 18]: 9.1 kP | Brittle Fracture Index (BFI) [6]: 0.11 | Strain Index (SI) [6]: 0.0043 | Tensile Strength [6]: 0.69 Mpa | Worst Case Bonding Index (BIw) × 10^2 [6]: 0.7
